Earlier results as cited in patent publication US20030199492A1, “Combination therapy” (priority 1997, published 2003).

Experiments:
[1] = test system: smooth muscle cell migration

CCOC(=O)C1=C(COCCN)NC(C)=C(C(=O)OC)C1c1ccccc1Cl (single isomer, unassigned) [R(+) isomer, amlodipine]
calcium channel blocking activity (calcium channel): little or no calcium channel blocking activity | inhibition of smooth muscle cell migration [1]: potent inhibitor of smooth muscle cell migration
